Consider 4 compounds from paper PMC6148290, “Endogenous metabolites of vitamin E limit inflammation by targeting 5-lipoxygenase” (Nature Communications, 2018).

Usually IC50 stands for the midpoint of a concentration-inhibition curve.

One data set deals with 15-LO. The data set is described as follows: 15-LO product formation in A23187/AA-activated PMNL. It is filed as cell-based, human. Conditions: at 3 µM; mean ± s.e.m., n = 3; n.i. no inhibition. The protocol:
(§1) Cells were washed and medium was exchanged. Freshly isolated PMNL (1 × 10^7) and stably transfected HEK-293 (1 × 10^6) cells were suspended in PBS pH 7.4 containing 1 mg/ml glucose and 1 mM CaCl2. […] A23187- and A23187/AA-treated PMNL and A23187/AA-treated HEK-293 (5-LO_wt), HEK-293 (5-LO_3W) and HEK-293 (5-LO_Arg101Asp) cells produced 135 ± 21, 636 ± 112, 300 ± 59, 133 ± 29, 55 ± 9 ng 5-LO products, respectively. PMNL synthesized 29 ± 6 ng 12-HETE and 97 ± 23 ng 15-HETE when challenged with A23187/AA. 5-LO products from monocytes were analyzed by UPLC-MS/MS.
`C/C(=C\CC/C(C)=C/CC/C(C)=C/CC[C@]1(C)CCc2cc(O)cc(C)c2O1)CO` [2h]: the “15-LO product formation/PMNL, residual activity” value was “n.i”.

As to `Cc1c(C)c2c(c(C)c1O)CC[C@@](C)(CCCC(C)CCCC(C)CCCC(C)CO)O2` (stereo partly shown) [2a], the “15-LO product formation/PMNL, residual activity” value is reported as 156.7 ± 26.2 % of control.

As to `Cc1cc(O)cc2c1O[C@](C)(CCC[C@H](C)CCC[C@H](C)CCCC(C)C)CC2` [1d], the “15-LO product formation/PMNL, residual activity” value is given as 86.6 ± 15.8 % of control.

Turning to `Cc1c(C)c2c(c(C)c1O)CC[C@@](C)(CCC[C@H](C)CCC[C@H](C)CCCC(C)C)O2` [1a, α-tocopherol], the “15-LO product formation/PMNL, residual activity” value is listed as “n.i”.

The next data set has as its target T1, 12-LO (Homo sapiens, UniProt P18054).
T1 construct: 12-HETE (12-LO product from platelets in PMNL preparations); endogenous in cells; host or cells: platelets contaminating human PMNL preparations
T1 sequence (P18054 1-663): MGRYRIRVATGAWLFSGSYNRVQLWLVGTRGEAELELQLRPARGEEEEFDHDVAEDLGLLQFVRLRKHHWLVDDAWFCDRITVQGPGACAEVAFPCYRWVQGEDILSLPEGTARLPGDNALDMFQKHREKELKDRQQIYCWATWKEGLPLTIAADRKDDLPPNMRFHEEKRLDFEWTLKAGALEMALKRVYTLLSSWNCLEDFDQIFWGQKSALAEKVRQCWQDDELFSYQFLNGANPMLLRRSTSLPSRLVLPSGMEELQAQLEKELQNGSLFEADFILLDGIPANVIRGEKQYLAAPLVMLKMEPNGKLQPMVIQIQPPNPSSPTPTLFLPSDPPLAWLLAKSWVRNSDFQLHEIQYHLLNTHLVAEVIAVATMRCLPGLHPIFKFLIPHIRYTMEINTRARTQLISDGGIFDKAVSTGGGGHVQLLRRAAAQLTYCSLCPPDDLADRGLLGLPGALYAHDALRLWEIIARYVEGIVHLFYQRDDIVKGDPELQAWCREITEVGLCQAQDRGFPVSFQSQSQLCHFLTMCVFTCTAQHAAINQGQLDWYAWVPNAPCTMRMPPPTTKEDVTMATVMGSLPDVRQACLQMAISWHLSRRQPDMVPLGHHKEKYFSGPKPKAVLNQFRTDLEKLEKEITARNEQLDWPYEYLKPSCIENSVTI
Nature of the data set: 12-LO product formation in A23187/AA-activated PMNL. Conditions: at 3 µM; mean ± s.e.m., n = 3; n.i. no inhibition. It is filed as cell-based. The protocol:
as §1
Take `C/C(=C\CC/C(C)=C/CC/C(C)=C/CC[C@]1(C)CCc2cc(O)cc(C)c2O1)CO` [2h]: the “12-LO product formation/PMNL, residual activity” value is given as “n.i”.

For `Cc1c(C)c2c(c(C)c1O)CC[C@@](C)(CCCC(C)CCCC(C)CCCC(C)CO)O2` (stereo partly shown) [2a], the “12-LO product formation/PMNL, residual activity” value was 84.7 ± 4.7 % of control.

Take `Cc1cc(O)cc2c1O[C@](C)(CCC[C@H](C)CCC[C@H](C)CCCC(C)C)CC2` [1d]: the “12-LO product formation/PMNL, residual activity” value is “n.i”.

With `Cc1c(C)c2c(c(C)c1O)CC[C@@](C)(CCC[C@H](C)CCC[C@H](C)CCCC(C)C)O2` [1a, α-tocopherol], the “12-LO product formation/PMNL, residual activity” value is “n.i”.

Another data set relates to zymosan-induced murine peritonitis. The data set is described as follows: Zymosan-induced peritonitis in mice. The settings on record: 10 mg/kg i.p.; 30 min post zymosan; ELISA. It is filed as in vivo, mouse. On the procedure: Mice were killed by inhalation of CO2 after another 30 min for determination of LTC4 levels and vascular permeability and after 4 h for the analysis of LTB4 levels, lipidomic profiles and immune cell infiltration. Cell infiltration and lipid mediator profiles during resolution were studied after 18 h. Peritoneal exudates were collected and cells counted after vital trypan blue staining. LTC4, LTB4, and PGE2 were analyzed in the exudate by enzyme immunoassays (Enzo Life Sciences, Lörrach, Germany) according to manufacturer's instructions. To assess vascular permeability, Evans blue dye (40 mg/kg in saline, 0.3 ml; Sigma-Aldrich) was injected into the tail vain immediately before the induction of peritonitis. Exudates were centrifuged (3000 × g, 5 min) and the absorbance of the supernatants was measured at 610 nm using a Beckman Coulter DU730 spectrophotometer. To investigate the effect of α-T (1a) on the accumulation of α-T-13'-COOH (4a) in infiltrated leukocytes after peritonitis has been established, vehicle or α-[…].) were given 1 h before and/or 4 h post zymosan injection, and mice were killed after another 1.5 h. Leukocytes were obtained from peritoneal exudates by centrifugation (1200 × g, 10 min, 4 °C).
(ELISA stands for enzyme-linked immunosorbent assay.)
Turning to `Cc1c(C)c2c(c(C)c1O)CC[C@@](C)(CCC[C@H](C)CCC[C@H](C)CCCC(C)C)O2` [1a, α-tocopherol], the “LTC4 levels in the exudate” value is on record as “significantly less effective”.

A further data set deals with T2, 5-LO (Homo sapiens, UniProt P09917).
T2 sequence (P09917 1-674): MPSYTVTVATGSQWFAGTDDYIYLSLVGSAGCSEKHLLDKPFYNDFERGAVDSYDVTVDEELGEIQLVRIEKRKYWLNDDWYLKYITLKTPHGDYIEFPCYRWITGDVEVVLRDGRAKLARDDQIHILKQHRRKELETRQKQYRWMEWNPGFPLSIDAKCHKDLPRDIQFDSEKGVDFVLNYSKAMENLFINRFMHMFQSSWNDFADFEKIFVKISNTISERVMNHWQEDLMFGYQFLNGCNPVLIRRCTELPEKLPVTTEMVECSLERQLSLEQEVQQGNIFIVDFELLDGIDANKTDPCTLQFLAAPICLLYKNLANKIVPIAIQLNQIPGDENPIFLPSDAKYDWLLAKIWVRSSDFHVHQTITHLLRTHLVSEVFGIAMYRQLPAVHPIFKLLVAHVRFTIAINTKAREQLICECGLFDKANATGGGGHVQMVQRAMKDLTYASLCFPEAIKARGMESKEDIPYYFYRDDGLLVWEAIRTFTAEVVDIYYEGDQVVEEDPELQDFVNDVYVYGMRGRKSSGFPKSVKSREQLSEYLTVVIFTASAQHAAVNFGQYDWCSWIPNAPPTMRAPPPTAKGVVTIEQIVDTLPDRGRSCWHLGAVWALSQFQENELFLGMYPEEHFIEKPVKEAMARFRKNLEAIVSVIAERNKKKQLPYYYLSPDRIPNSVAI
Nature of the data set: Activity of purified human recombinant 5-LO (cell-free). It is filed as biochemical. Also noted: made in house; host or cells: E. coli Bl21 (DE3). Conditions: cell-free; mean ± s.e.m., n = 3; read-out: IC50, human recombinant 5-LO. The protocol: E. coli Bl21 (DE3) cells were transformed with pT3–5LO plasmid to express human recombinant 5-LO, which was purified by affinity chromatography on an ATP-agarose column. In brief, E. coli was lysed in 50 mM triethanolamine/HCl pH 8.0 plus EDTA (5 mM), soybean trypsin inhibitor (60 µg/ml), phenylmethanesulphonyl fluoride (1 mM), dithiothreitol (1 mM), and lysozyme (1 mg/ml). After sonication (3 × 15 s), the homogenate was centrifuged at 10,000 × g for 15 min and the supernatant again at 40,000 × g for 70 min at 4 °C. The supernatant was applied to an ATP-agarose column (Sigma-Aldrich), and the column was washed with (i) PBS pH 7.4, 1 mM EDTA, (ii) 50 mM phosphate buffer pH 7.4, 0.5 M NaCl, 1 mM EDTA, and (iii) 50 mM phosphate buffer pH 7.4, 1 mM EDTA. 5-LO was eluted with 50 mM phosphate buffer pH 7.4, 1 mM EDTA, 20 mM ATP.
Purified 5-LO (0.5 µg) in PBS pH 7.4 containing EDTA (1 mM) and ATP (1 mM) was pre-incubated with LCMs for 10 min at 4 °C, pre-warmed for 30 s at 37 °C and 5-LO product formation was started by addition of AA (Sigma-Aldrich; 20 µM if not indicated otherwise) plus CaCl2 (2 mM). […] AA was added after incubation for 5 min on ice.
Regarding `C/C(=C\CC/C(C)=C/CC/C(C)=C/CC[C@]1(C)CCc2cc(O)cc(C)c2O1)CO` [2h], the IC50 amounted to 150 ± 50 nM.

For `Cc1c(C)c2c(c(C)c1O)CC[C@@](C)(CCCC(C)CCCC(C)CCCC(C)CO)O2` (stereo partly shown) [2a], the half-maximal inhibitory concentration (IC50) came out at 350 ± 40 nM.

Take `Cc1cc(O)cc2c1O[C@](C)(CCC[C@H](C)CCC[C@H](C)CCCC(C)C)CC2` [1d]: the IC50 was found to be 310 ± 100 nM.

On to `Cc1c(C)c2c(c(C)c1O)CC[C@@](C)(CCC[C@H](C)CCC[C@H](C)CCCC(C)C)O2` [1a, α-tocopherol], for which the IC50 is over 1000 nM.

Another data set concerns peripheral blood mononuclear cells. Nature of the data set: Cell viability of PBMC (MTT assay). It is filed as cell-based, human. The settings on record: at 1 and 10 µM (one entry for both); 24 h; n.i. no inhibition. The protocol:
The formazan product was solubilized with SDS (10% in 20 mM HCl), and absorbance was measured at 570 nm using a Multiskan Spectrum microplate reader (Thermo Fisher Scientific).
(In general: Tetrazolium dyes change colour on reduction, which living cells bring about.)
On to `C/C(=C\CC/C(C)=C/CC/C(C)=C/CC[C@]1(C)CCc2cc(O)cc(C)c2O1)CO` [2h], for which the “Cell viability/peripheral blood mononuclear cells, residual viability” value is listed as “n.i”.

Regarding `Cc1c(C)c2c(c(C)c1O)CC[C@@](C)(CCCC(C)CCCC(C)CCCC(C)CO)O2` (stereo partly shown) [2a], the “Cell viability/peripheral blood mononuclear cells, residual viability” value was “n.i”.

Turning to `Cc1cc(O)cc2c1O[C@](C)(CCC[C@H](C)CCC[C@H](C)CCCC(C)C)CC2` [1d], the “Cell viability/peripheral blood mononuclear cells, residual viability” value is on record as “n.i”.

In the case of `Cc1c(C)c2c(c(C)c1O)CC[C@@](C)(CCC[C@H](C)CCC[C@H](C)CCCC(C)C)O2` [1a, α-tocopherol], the “Cell viability/peripheral blood mononuclear cells, residual viability” value is “n.i”.

In a further data set the target is T2, 5-LO. The data set is described as follows: 5-LO product formation in activated PMNL. It is filed as cell-based. Also noted: Freshly isolated PMNL (1 × 10^7); endogenous in cells; host or cells: human PMNL freshly isolated from leukocyte concentrates. Conditions: cell-based; mean ± s.e.m., n = 3; read-out: IC50, activated PMNL (5-LO). The text has this:
Human PMNL, monocytes, PBMC, and platelets were freshly isolated from leukocyte concentrates. The protocols for experiments with human blood and blood cells were approved by the ethical commission of the Friedrich-Schiller-University Jena. […] PMNL were recovered from the pellet after hypotonic lysis of erythrocytes. Platelets were obtained from the supernatant and washed with PBS pH 5.9/0.9% NaCl (1:1). […]
`C/C(=C\CC/C(C)=C/CC/C(C)=C/CC[C@]1(C)CCc2cc(O)cc(C)c2O1)CO` [2h]: the IC50 was found to be 1260 ± 330 nM.

Regarding `Cc1c(C)c2c(c(C)c1O)CC[C@@](C)(CCCC(C)CCCC(C)CCCC(C)CO)O2` (stereo partly shown) [2a], the IC50 came out at 190 ± 50 nM.

As to `Cc1cc(O)cc2c1O[C@](C)(CCC[C@H](C)CCC[C@H](C)CCCC(C)C)CC2` [1d], the IC50 turned out to be 85000 ± 5000 nM.

On to `Cc1c(C)c2c(c(C)c1O)CC[C@@](C)(CCC[C@H](C)CCC[C@H](C)CCCC(C)C)O2` [1a, α-tocopherol], for which the IC50 was determined as 808000 ± 159000 nM.

Tested on in the next data set: not given
Assay: not given
Conditions: ref Mangialasche et al., 2012; cited from earlier work.
As to `Cc1cc(O)cc2c1O[C@](C)(CCC[C@H](C)CCC[C@H](C)CCCC(C)C)CC2` [1d], the “plasma levels in humans” value was 0.01 µM.

`Cc1c(C)c2c(c(C)c1O)CC[C@@](C)(CCC[C@H](C)CCC[C@H](C)CCCC(C)C)O2` [1a, α-tocopherol]: the “plasma levels in humans” value was 25 to 35 µM.

The same data set, now with this note: ref Nagita et al., 1997; cited from earlier work.
Regarding `Cc1c(C)c2c(c(C)c1O)CC[C@@](C)(CCC[C@H](C)CCC[C@H](C)CCCC(C)C)O2` [1a, α-tocopherol], the hepatic tissue concentrations is 70 to 530 nmol/g and the human plasma level is 14 to 27 µM.
